Measured values from patent US9284283B2, “Macrocyclic compounds for modulating IL-17” (ENSEMBLE THERAPEUTICS CORPORATION, priority 2012, dated 2016).
Read-outs that look alike come from different tables or passages of the source.

What was measured:
[1] = tested on: IL-17A induced secretion of IL-6 in primary human RASF cells; test: Inhibition of IL17A induced secretion of IL6 in human rheumatoid arthritis synovial fibroblast (RASF) cells; assay type: cell-based
Method: This assay was used to determine the extent of inhibition of IL-17A induced secretion of IL-6 in primary human rheumatoid synovial fibroblast (RASF) cells by compounds of the invention. IL-17A is known to stimulate IL-6 production in RASF cells.
Low passage (passage 2-8) Primary human RASF cells (Asterand) were maintained in maintenance medium. Cells were detached from flasks by tryptic digestion and the cell density of the suspension determined. To each well of a 96 well culture plate was added 100 μL of seeding medium containing 50,000 cells/mL and the plate incubated overnight in a humidified 37° C., 5% CO2 incubator. The medium was replaced with fresh assay medium and cells were incubated for additional 5 hours in a humidified 37° C., 5% CO2 incubator prior to stimulation with recombinant human IL-17A (“rhIL-17A”). Prior to addition to cells, rhIL-17A (30 ng/mL) in assay medium was incubated with either DMSO alone, compounds, or anti-IL17 receptor antibody (3 μg/mL) for 1 hour at 37° C. The final concentration of DMSO in all samples was 0.25%. The final concentration of compounds varied from 0.03 μM to 25 μM.
Immediately before stimulation, cells were washed once with fresh assay medium. Then, 100 μL of the test samples was added in triplicate wells and the plates incubated for 20 hours in a humidified 37° C., 5% CO2 incubator. The assay medium from each well was collected and the IL-6 concentration in cell culture supernatants was determined by ELISA either immediately or after storage at −20° C.
A water-soluble tetrazolium salt (WST1) viability assay was immediately performed on the cells after the conditioned medium was collected using a WST1 reagent purchased from Roche. The concentration of IL-6 obtained from ELISA was normalized by the WST1 data.

[2] = target: T1, biotinylated human IL-17 (binding to IL17R/Fc) (Homo sapiens, UniProt Q16552); test: IL-17 competition ELISA II (captured IL17R/Fc, biotinylated IL-17)
T1 construct: purchased R&D Systems 317-ILB (IL-17, biotinylated); 177-IR (IL17R/Fc)
T1 sequence (Q16552 20-155 limits assumed): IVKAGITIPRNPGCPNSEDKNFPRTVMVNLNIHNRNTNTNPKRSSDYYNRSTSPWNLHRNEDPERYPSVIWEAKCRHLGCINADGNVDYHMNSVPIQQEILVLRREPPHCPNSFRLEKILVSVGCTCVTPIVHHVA
Summary of the method: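 Anti-human IgG-coated plates captured IL17R/Fc (10 nM), then compound (5-fold dilutions from 1 μM) and biotinylated human IL-17 (20 nM stock) were added for 30 min at room temperature in PBST. Bound IL-17 detected by streptavidin-HRP/TMB at 450 nm. IC50 from 4-parameter logistic fit between no-competitor and blank controls.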

Row | Structure (SMILES) | IC50 [2] [nM] | IC50 ([1]; Homo sapiens, Fibroblast) [nM] | IC50 [1] [nM]
1 | O=C1CNC(=O)[C@@H](Cc2ccc(NC(=O)[C@H](Cc3ccccc3Cl)NC(=O)Cc3cccnc3)cc2)NC(=O)CC2(CCCC2)CC(=O)NCCCCCN1 [Compound 198] | – | 1000 to 10000 | –
2 | O=C1CNC(=O)[C@@H](Cc2ccc(NC(=O)[C@@H](NC(=O)Cc3ccc(F)cc3)C3CCCCC3)cc2)NC(=O)CC2(CCCC2)CC(=O)NCCCCCN1 [Compound 380] | – | 100 to 1000 | –
3 | O=C1CNC(=O)[C@@H](Cc2ccc(NC(=O)[C@H](Cc3ccc(F)cc3Cl)NC(=O)Cc3ccccc3)cc2)NC(=O)CC2(CCCC2)CC(=O)NCCCCCN1 [Compound 386] | < 100 | 1000 to 10000 | –
4 | O=C1CNC(=O)[C@@H](Cc2ccc(NC(=O)[C@H](Cc3ccc(F)cc3Cl)NC(=O)Cc3ccc(F)cc3)cc2)NC(=O)CC2(CCCC2)CC(=O)NCCCCCN1 [Compound 388] | < 100 | < 100 | –
5 | CN1CCNC(=O)CC2(CCCC2)CC(=O)N[C@H](Cc2ccc(NC(=O)[C@H](Cc3ccccc3Cl)NC(=O)Cc3ccccc3)cc2)C(=O)NCC1 [Compound 399] | < 100 | 1000 to 10000 | –
6 | O=C1CNC(=O)[C@@H](Cc2ccc(NC(=O)[C@H](Cc3ccccc3Cl)NC(=O)Cc3ccc(NC(=O)CNCc4ccccc4)cc3)cc2)NC(=O)CC2(CCCC2)CC(=O)NCCCCCN1 [Compound 405] | < 100 | 100 to 1000 | –
7 | O=C1CC2(CCCC2)CC(=O)NC(Cc2ccc(NC(=O)C(Cc3ccccc3Cl)NC(=O)c3cccnc3)cc2)C(=O)NCCOCCOCCN1 (centres unmarked) [Compound 406] | < 100 | – | 1000 to 10000
8 | O=C1CNC(=O)[C@@H](Cc2ccc(NC(=O)[C@H](Cc3ccc(F)cc3Cl)NC(=O)Cc3ccc(CO)cc3)cc2)NC(=O)CC2(CCCC2)CC(=O)NCCCCCN1 [Compound 408] | < 100 | 100 to 1000 | –
9 | CN1C(=O)CC2(CCCC2)CC(=O)NCCCCCNC(=O)CNC(=O)[C@H]1Cc1ccc(NC(=O)[C@H](Cc2ccccc2Cl)NC(=O)Cc2ccccc2)cc1 [Compound 413] | < 100 | > 10000 | –
10 | O=C1CC2(CCCC2)CC(=O)N[C@H](Cc2ccc(NC(=O)[C@@H](NC(=O)Cc3ccc(F)cc3)C3CCCCC3)cc2)C(=O)NCCOCCOCCN1 [Compound 424] | < 100 | > 10000 | –
11 | O=C1CC2(CCCC2)CC(=O)N[C@H](Cc2ccc(NC(=O)[C@H](Cc3ccccc3Cl)NC(=O)Cc3ccc(F)cc3)cc2)C(=O)N[C@H](C2CCCCC2)C(=O)NCCCCCN1 [Compound 425] | < 100 | 100 to 1000 | –
12 | C[C@H]1NC(=O)[C@@H](Cc2ccc(NC(=O)[C@H](Cc3ccccc3Cl)NC(=O)C3(c4ccc(F)cc4)CC3)cc2)NC(=O)CC2(CCCC2)CC(=O)NCCCCCNC1=O [Compound 427] | < 100 | 1000 to 10000 | –
13 | C[C@H]1NC(=O)[C@@H](Cc2ccc(NC(=O)[C@H](Cc3ccccc3Cl)NC(=O)C(F)(F)c3ccccc3)cc2)NC(=O)CC2(CCCC2)CC(=O)NCCCCCNC1=O [Compound 434] | < 100 | 100 to 1000 | –
14 | CN(C)CCOc1ccc(CC(=O)N[C@H](C(=O)Nc2ccc(C[C@H]3NC(=O)CC4(CCCC4)CC(=O)NCCCCCNC(=O)[C@@H](Cc4ccccc4)NC3=O)cc2)C2CCCCC2)cc1 [Compound 437] | 100 to 1000 | 1000 to 10000 | –
15 | CN(CCOc1ccc(CC(=O)N[C@@H](Cc2ccccc2Cl)C(=O)Nc2ccc(C[C@H]3NC(=O)CC4(CCCC4)CC(=O)NCCCCCNC(=O)[C@@H](Cc4ccccc4)NC3=O)cc2)cc1)Cc1ccccc1 [Compound 438] | < 100 | 100 to 1000 | –
16 | O=C1CC2(CCCC2)CC(=O)N[C@H](Cc2ccc(NC(=O)[C@H](Cc3ccccc3Cl)NC(=O)Cc3ccc(OCCN4CCOCC4)cc3)cc2)C(=O)N[C@H](Cc2ccccc2)C(=O)NCCCCCN1 [Compound 439] | < 100 | 100 to 1000 | –
17 | O=C1CC2(CCCC2)CC(=O)N[C@H](Cc2ccc(NC(=O)[C@H](Cc3ccccc3Cl)NC(=O)Cc3cccc(O)c3)cc2)C(=O)NCCCCCCCCN1 [Compound 441] | < 100 | 100 to 1000 | –
18 | O=C1CC2(CCCC2)CC(=O)N[C@H](Cc2ccc(NC(=O)[C@H](Cc3ccccc3Cl)NC(=O)c3cccnc3)cc2)C(=O)NCCCCCCCCN1 [Compound 442] | < 100 | 1000 to 10000 | –
19 | C[C@H]1NC(=O)[C@@H](Cc2ccc(NC(=O)[C@H](Cc3ccccc3Cl)NC(=O)Cc3ccccc3)cc2)NC(=O)CC2(CCCC2)CC(=O)NCCNCCNC1=O [Compound 443] | < 100 | 100 to 1000 | –
20 | Cc1ccccc1C[C@H](NC(=O)C(F)(F)c1ccccc1)C(=O)Nc1ccc(C[C@H]2NC(=O)CC3(CCCC3)CC(=O)N(C)CCCCCNC(=O)[C@@H](C)NC2=O)cc1 [Compound 512] | – | 100 to 1000 | –

Continued, in another order:

Row | IC50 [2] [nM] | Structure (SMILES) | IC50 ([1]; Homo sapiens, Fibroblast) [nM] | IC50 [1] [nM]
21 | < 100 | O=C1CC2(CCCC2)CC(=O)N[C@H](Cc2ccc(NC(=O)[C@H](Cc3ccccc3Cl)NC(=O)Cc3ccc(F)cc3)cc2)C(=O)NCC#CCCCCCN1 [Compound 446] | 100 to 1000 | –
22 | < 100 | O=C1CC2(CCCC2)CC(=O)N[C@H](Cc2ccc(NC(=O)[C@H](Cc3ccccc3Cl)NC(=O)Cc3ccc(CO)cc3)cc2)C(=O)N[C@@H](CO)C(=O)NCCCC[C@@H](C(=O)O)N1 [Compound 455] | < 100 | –
23 | < 100 | CN1CCCCCNC(=O)CNC(=O)[C@@H](Cc2ccc(NC(=O)[C@H](Cc3ccccc3Cl)NC(=O)Cc3cccc(O)c3)cc2)NC(=O)CC2(CCCC2)CC1=O [Compound 457] | 1000 to 10000 | –
24 | < 100 | C[C@H]1NC(=O)[C@@H](Cc2ccc(NC(=O)[C@H](Cc3ccccc3Cl)NC(=O)Cc3ccc(F)cc3)cc2)NC(=O)CC2(CCCC2)CC(=O)N(C)CCCCCNC1=O [Compound 469] | 1000 to 10000 | –
25 | < 100 | C[C@H]1NC(=O)[C@@H](Cc2ccc(NC(=O)[C@H](Cc3ccccc3Cl)NC(=O)Cc3ccc(F)cc3)cc2)NC(=O)CC2(CCCC2)CC(=O)NCCCCCN(C)C1=O [Compound 470] | 100 to 1000 | –
26 | < 100 | CN1CCCCCNC(=O)[C@@H](CCC(=O)O)NC(=O)[C@@H](Cc2ccc(NC(=O)[C@H](Cc3ccccc3Cl)NC(=O)Cc3cccc(O)c3)cc2)NC(=O)CC2(CCCC2)CC1=O [Compound 473] | 100 to 1000 | –
27 | < 100 | Cc1ccccc1C[C@H](NC(=O)Cc1ccc(F)cc1)C(=O)Nc1ccc(C[C@H]2NC(=O)CC3(CCCC3)CC(=O)NCCCCCNC(=O)[C@@H](C)NC2=O)cc1 [Compound 476] | 100 to 1000 | –
28 | < 100 | Cc1ccccc1C[C@H](NC(=O)Cc1ccc(F)cc1)C(=O)Nc1ccc(C[C@H]2NC(=O)CC3(CCCC3)CC(=O)NCCOCCOCCNC2=O)cc1 [Compound 478] | 1000 to 10000 | –
29 | < 100 | NC(=O)CC[C@H]1NC(=O)[C@@H](Cc2ccc(NC(=O)[C@H](Cc3ccccc3Cl)NC(=O)Cc3ccc(F)cc3)cc2)NC(=O)CC2(CCCC2)CC(=O)NCCCCCNC1=O [Compound 479] | < 100 | –
30 | < 100 | C[C@H]1NC(=O)[C@@H](Cc2ccc(NC(=O)[C@H](Cc3ccccc3Cl)NC(=O)Cc3ccc(F)cc3)cc2)N(C)C(=O)CC2(CCCC2)CC(=O)N(C)CCCCCNC1=O [Compound 480] | 1000 to 10000 | –
31 | < 100 | O=C1CC2(CCCC2)CC(=O)N[C@H](Cc2ccc(NC(=O)[C@H](Cc3ccccc3Cl)NC(=O)OCc3ccccc3)cc2)C(=O)NCCOCCOCCN1 [Compound 484] | 100 to 1000 | –
32 | < 100 | C[C@H]1NC(=O)[C@@H](Cc2ccc(NC(=O)[C@H](Cc3ccccc3Cl)NC(=O)Cc3ccc(CO)cc3)cc2)NC(=O)CC2(CCCC2)CC(=O)NCCCCCNC1=O [Compound 487] | < 100 | –
33 | < 100 | C[C@H]1NC(=O)[C@@H](Cc2ccc(NC(=O)[C@H](Cc3ccccc3Cl)NC(=O)Cc3ccc(F)cc3)cc2)NC(=O)CC2(CCCC2)CC(=O)N(C)CCCCCN(C)C1=O [Compound 488] | 1000 to 10000 | –
34 | < 100 | O=C1CC2(CCCC2)CC(=O)N[C@H](Cc2ccc(NC(=O)[C@H](Cc3ccccc3Cl)NC(=O)Cc3ccc(F)cc3)cc2)C(=O)NCCOCCOCCN1 [Compound 490] | 1000 to 10000 | –
35 | < 100 | Cc1ccc(CC(=O)N[C@@H](Cc2ccccc2Cl)C(=O)Nc2ccc(C[C@H]3NC(=O)CC4(CCCC4)CC(=O)NCCOCCOCCNC3=O)cc2)cc1 [Compound 494] | 100 to 1000 | –
36 | < 100 | Cc1ccccc1CC(=O)N[C@@H](Cc1ccccc1Cl)C(=O)Nc1ccc(C[C@H]2NC(=O)CC3(CCCC3)CC(=O)NCCOCCOCCNC2=O)cc1 [Compound 495] | 1000 to 10000 | –
37 | < 100 | O=C1CC2(CCCC2)CC(=O)N[C@H](Cc2ccc(NC(=O)[C@H](Cc3ccccc3Cl)NC(=O)Cc3ccc(F)cc3)cc2)C(=O)NCC#CCCCCN1 [Compound 497] | 1000 to 10000 | –
